Measured values as given in the supplement of paper PMC10307832.

Assays:
Experiment in all cases: relative viability (nuclei count vs DMSO), 5 days (fraction); higher = more cells survive
R406 + Palbociclib = compound: COc1cc(Nc2ncc(F)c(Nc3ccc4c(n3)NC(=O)C(C)(C)O4)n2)cc(OC)c1OC [R406] + CC(=O)c1c(C)c2cnc(Nc3ccc(N4CCNCC4)cn3)nc2n(C2CCCC2)c1=O [Palbociclib] (partner 0.5 µM)
Summary of the method: (§1)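 Dosing by pin tool came one day after lung cancer cell lines were seeded in 1536-well plates, using either one drug or a fixed anchor-drug dose plus five library-drug doses (not always all listed) in √10 steps. After 5 days, nuclei were counted on 4× images. Relative viability is treated-well nuclei count divided by vehicle-well nuclei count, and values are medians of duplicate plates.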

Daporinad + Crizotinib = compound: O=C(/C=C/c1cccnc1)NCCCCC1CCN(C(=O)c2ccccc2)CC1 [Daporinad] + C[C@@H](Oc1cc(-c2cnn(C3CCNCC3)c2)cnc1N)c1c(Cl)ccc(F)c1Cl [Crizotinib] (partner 1 µM)
Summary of the method: as §1

Daporinad + Decitabine = compound: O=C(/C=C/c1cccnc1)NCCCCC1CCN(C(=O)c2ccccc2)CC1 [Daporinad] + Nc1ncn([C@H]2C[C@H](O)[C@@H](CO)O2)c(=O)n1 [Decitabine] (partner 2 µM)
Summary of the method: as §1

R406 + AZD7762 = compound: COc1cc(Nc2ncc(F)c(Nc3ccc4c(n3)NC(=O)C(C)(C)O4)n2)cc(OC)c1OC [R406] + NC(=O)Nc1cc(-c2cccc(F)c2)sc1C(=O)N[C@H]1CCCNC1 [AZD7762] (partner 0.2 µM)
Summary of the method: as §1

Row | Cell Line | relative viability (R406 + Palbociclib; first compound 0.08 µM) | relative viability (R406 + Palbociclib; first compound 0.253 µM) | relative viability (R406 + Palbociclib; first compound 0.8 µM) | relative viability (R406 + Palbociclib; first compound 2.53 µM) | relative viability (R406 + Palbociclib; first compound 8 µM) | relative viability (Daporinad + Crizotinib; first compound 0.0005 µM) | relative viability (Daporinad + Crizotinib; first compound 0.001581 µM) | relative viability (Daporinad + Crizotinib; first compound 0.005 µM) | relative viability (Daporinad + Crizotinib; first compound 0.01581 µM) | relative viability (Daporinad + Decitabine; first compound 0.0005 µM) | relative viability (Daporinad + Decitabine; first compound 0.001581 µM) | relative viability (Daporinad + Decitabine; first compound 0.005 µM) | relative viability (Daporinad + Decitabine; first compound 0.01581 µM) | relative viability (R406 + AZD7762; first compound 0.08 µM) | relative viability (R406 + AZD7762; first compound 0.253 µM) | relative viability (R406 + AZD7762; first compound 0.8 µM) | relative viability (R406 + AZD7762; first compound 2.53 µM) | relative viability (R406 + AZD7762; first compound 8 µM)
1 | NCI-H2126 | 0.347 | 0.357 | 0.313 | 0.349 | 0.276 | 1.06 | 1.03 | 1.09 | 1.01 | 0.618 | 0.524 | 0.638 | 0.584 | 0.937 | 1.12 | 1.08 | 0.909 | 0.858
2 | LXF-289 | 0.589 | 0.621 | 0.623 | 0.596 | 0.596 | 0.784 | 0.899 | 0.848 | 0.854 | 0.4 | 0.426 | 0.397 | 0.332 | 1.03 | 1.19 | 1.11 | 0.88 | 0.762
3 | NCI-H2405 | 0.52 | 0.561 | 0.517 | 0.364 | 0.2 | 0.731 | 0.92 | 0.918 | 0.511 | 0.796 | 0.807 | 0.751 | 0.379 | 0.715 | 0.869 | 0.85 | 0.692 | 0.244
4 | NCI-H1755 | 0.419 | 0.456 | 0.422 | 0.421 | 0.397 | 0.83 | 0.859 | 0.919 | 0.843 | 0.747 | 0.716 | 0.713 | 0.652 | 0.382 | 0.493 | 0.369 | 0.335 | 0.253
5 | HCC-78 | 0.457 | 0.525 | 0.501 | 0.467 | 0.427 | 0.333 | 0.362 | 0.331 | 0.428 | 0.805 | 0.744 | 0.669 | 0.65 | 0.571 | 0.861 | 0.623 | 0.619 | 0.449
6 | LOU-NH91 | 0.532 | 0.547 | 0.499 | 0.552 | 0.538 | 0.782 | 0.801 | 0.862 | 0.913 | 0.824 | 0.837 | 0.877 | 0.947 | 0.718 | 0.769 | 0.706 | 0.574 | 0.473
7 | NCI-H3122 | 0.18 | 0.184 | 0.178 | 0.237 | 0.238 | 0.237 | 0.29 | 0.261 | 0.238 | 0.308 | 0.417 | 0.392 | 0.321 | 1.06 | 1.04 | 0.969 | 0.804 | 0.924
8 | HCC-827 | 0.508 | 0.538 | 0.517 | 0.422 | 0.373 | 0.963 | 1.01 | 0.936 | 0.931 | 0.322 | 0.356 | 0.351 | 0.336 | 0.336 | 0.239 | 0.234 | 0.176 | 0.134
9 | NCI-H1975 | 0.537 | 0.734 | 0.644 | 0.115 | 0.192 | 0.996 | 0.899 | 1.12 | 0.881 | 0.444 | 0.338 | 0.382 | 0.373 | – | 0.757 | 0.771 | 0.341 | 0.325
10 | NCI-H1651 | 0.496 | 0.578 | 0.531 | 0.511 | 0.527 | 0.881 | 0.875 | 0.825 | 0.807 | 0.711 | 0.67 | 0.731 | 0.47 | 0.432 | 0.544 | 0.513 | 0.396 | 0.446
11 | NCI-H460 | 0.157 | 0.2 | 0.183 | 0.0283 | 0.0792 | 1.02 | 0.91 | 1.17 | 0.897 | 0.493 | 0.466 | 0.481 | 0.453 | 0.651 | 0.829 | 0.69 | 0.61 | 0.762
12 | LCLC-103H | 0.45 | 0.507 | 0.529 | 0.46 | 0.319 | 1.08 | 1.03 | 1.14 | 1.09 | 0.793 | 0.692 | 0.744 | 0.774 | 0.662 | 0.844 | 0.813 | 0.747 | 0.569
13 | LCLC-97TM1 | 0.34 | 0.218 | 0.273 | 0.185 | 0.217 | 0.443 | 0.402 | 0.605 | 0.323 | 0.221 | 0.243 | 0.209 | 0.233 | 0.207 | 0.313 | 0.327 | 0.164 | 0.219
14 | NCI-H838 | 0.227 | 0.236 | 0.247 | 0.179 | 0.107 | 0.886 | 0.92 | 0.959 | 0.675 | 0.44 | 0.518 | 0.358 | 0.303 | 0.915 | 1.02 | 1.04 | 0.853 | 0.741
15 | NCI-H1355 | 0.404 | 0.366 | 0.416 | 0.329 | 0.278 | 1.08 | 1.1 | 1.22 | 1.1 | 0.373 | 0.356 | 0.323 | 0.369 | 0.799 | 0.758 | 0.747 | 0.555 | 0.581
16 | HOP-62 | 0.426 | 0.533 | 0.397 | 0.456 | 0.378 | – | 1.05 | 0.994 | 0.789 | 0.176 | 0.209 | 0.208 | 0.179 | 0.76 | 0.813 | 0.793 | 0.531 | 0.585
17 | NCI-H2085 | 0.468 | 0.459 | 0.45 | 0.455 | 0.36 | 0.874 | 0.825 | 0.868 | 0.841 | 0.486 | – | 0.59 | 0.573 | 1.03 | 1 | 1.02 | 0.72 | 0.726
